Results reported in the NIST ThermoML archive (doi:10.1021/acs.jced.7b00381).
Numbers after ± are expanded uncertainties.

Conditions: Fluid (supercritical or subcritical phases), isochoric method

FC(F)(F)/C=C/C(F)(F)F [trans-1,1,1,4,4,4-hexafluoro-2-butene]
Conditions	mass density [kg/m3]
323.43 K, 579.7 kPa	1212.1 ± 4.9
333.44 K, 5332.4 kPa	1210.9 ± 4.9
333.46 K, 1305.2 kPa	1180.7 ± 4.7
343.44 K, 10088 kPa	1209.8 ± 4.9
343.45 K, 5602.3 kPa	1179.6 ± 4.7
353.44 K, 1232.2 kPa	1093.7 ± 6
353.44 K, 4087.2 kPa	1128.3 ± 4.5
353.46 K, 9911.4 kPa	1178.4 ± 4.7
363.43 K, 7766.9 kPa	1127.2 ± 4.5
363.44 K, 4495.7 kPa	1092.6 ± 4.4
363.45 K, 2343 kPa	1061.2 ± 4.3
373.43 K, 1203.4 kPa	83.9 ± 11
373.43 K, 1779.9 kPa	991.3 ± 14
373.44 K, 7789.6 kPa	1091.5 ± 4.4
373.46 K, 5302.7 kPa	1060.2 ± 4.3
383.41 K, 1661.4 kPa	129.2 ± 6.5
383.43 K, 2410.5 kPa	940.3 ± 4.4
383.44 K, 1263 kPa	83.9 ± 1
383.44 K, 4128.8 kPa	990.3 ± 4
383.46 K, 8290.7 kPa	1059.2 ± 4.3
393.42 K, 1764.3 kPa	129.1 ± 5.6
393.44 K, 1320.8 kPa	83.8 ± 0.9
393.44 K, 6524 kPa	989.3 ± 4
393.45 K, 2531 kPa	848.7 ± 4.2
393.45 K, 4410.6 kPa	939.4 ± 3.8
403.43 K, 1863.4 kPa	128.9 ± 1.9
403.43 K, 2784.5 kPa	594.5 ± 22
403.43 K, 3331.6 kPa	794.2 ± 3.6
403.44 K, 1377.2 kPa	83.7 ± 0.9
403.44 K, 2465.8 kPa	220.8 ± 4
403.44 K, 2774.4 kPa	460.7 ± 22
403.44 K, 2774.7 kPa	402.7 ± 28
403.44 K, 2776.5 kPa	535.5 ± 22
403.44 K, 4004.8 kPa	847.9 ± 3.4
403.44 K, 8946 kPa	988.4 ± 4
403.45 K, 2727.9 kPa	325 ± 23
403.45 K, 2855.7 kPa	688.4 ± 5.1
403.45 K, 3069.1 kPa	755.5 ± 4.3
403.45 K, 6453.8 kPa	938.5 ± 3.8
413.42 K, 1959.4 kPa	128.8 ± 1.6
413.42 K, 3461.5 kPa	594 ± 4.2
413.43 K, 3371.4 kPa	535 ± 6.3
413.43 K, 4600.2 kPa	793.4 ± 3.3
413.43 K, 5530.3 kPa	847.1 ± 3.4
413.44 K, 1432.9 kPa	83.6 ± 0.8
413.44 K, 2664.9 kPa	220.6 ± 1.7
413.44 K, 3213.6 kPa	402.3 ± 5.4
413.44 K, 3284.4 kPa	460.2 ± 7.2
413.44 K, 8521.8 kPa	937.6 ± 3.8
413.45 K, 3064.7 kPa	324.7 ± 3.9
413.45 K, 4177.9 kPa	754.8 ± 3.2
413.46 K, 3739.9 kPa	687.7 ± 3.5
423.42 K, 2053.6 kPa	128.7 ± 1
423.42 K, 3980.8 kPa	534.4 ± 3.6
423.42 K, 4173.8 kPa	593.4 ± 3.1
423.43 K, 1487.5 kPa	83.5 ± 0.8
423.43 K, 3786.7 kPa	459.8 ± 3.9
423.43 K, 5906.9 kPa	792.7 ± 3.2
423.44 K, 7088.7 kPa	846.2 ± 3.4
423.45 K, 2857.2 kPa	220.3 ± 2
423.45 K, 3387.7 kPa	324.4 ± 2.4
423.45 K, 3637.3 kPa	402 ± 3.2
423.45 K, 5329 kPa	754 ± 3.1
423.46 K, 4672.9 kPa	687 ± 3.1
433.42 K, 2146.1 kPa	128.6 ± 0.9
433.42 K, 4598 kPa	533.9 ± 2.9
433.42 K, 4900.8 kPa	592.8 ± 2.7
433.43 K, 1541.9 kPa	83.4 ± 0.7
433.43 K, 4284.4 kPa	459.3 ± 2.8
433.43 K, 4286.7 kPa	459.3 ± 2.8
433.43 K, 8666.9 kPa	845.4 ± 3.4
433.44 K, 3703.4 kPa	324.1 ± 2
433.44 K, 7237.5 kPa	791.9 ± 3.2
433.45 K, 3045.2 kPa	220.1 ± 1.4
433.45 K, 4055.4 kPa	401.6 ± 2.5
433.45 K, 5628.3 kPa	686.4 ± 2.9
433.45 K, 6506.9 kPa	753.3 ± 3.1
443.42 K, 1595.5 kPa	83.4 ± 0.7
443.42 K, 5218.7 kPa	533.4 ± 2.6
443.42 K, 5638.1 kPa	592.3 ± 2.6
443.43 K, 2237.3 kPa	128.4 ± 0.9
443.43 K, 4783.2 kPa	458.9 ± 2.4
443.44 K, 4469 kPa	401.2 ± 2.2
443.44 K, 7698.7 kPa	752.6 ± 3.1
443.44 K, 8584 kPa	791.1 ± 3.2
443.45 K, 3230.1 kPa	219.9 ± 1.3
443.45 K, 4013.8 kPa	323.8 ± 1.8
443.45 K, 6600.4 kPa	685.7 ± 2.8
453.42 K, 2327.6 kPa	128.3 ± 0.8
453.42 K, 5843.1 kPa	532.9 ± 2.4
453.42 K, 6380.9 kPa	591.7 ± 2.5
453.43 K, 1648.3 kPa	83.3 ± 0.7
453.44 K, 4319.3 kPa	323.4 ± 1.7
453.44 K, 5280.1 kPa	458.5 ± 2.2
453.44 K, 9941.5 kPa	790.4 ± 3.2
453.45 K, 3412.1 kPa	219.7 ± 1.2
453.46 K, 4880.1 kPa	400.8 ± 2
453.46 K, 7584.8 kPa	685 ± 2.8
453.46 K, 8905 kPa	751.8 ± 3.1
463.42 K, 1700 kPa	83.2 ± 0.7
463.42 K, 7127.1 kPa	591.1 ± 2.5
463.44 K, 2415.5 kPa	128.2 ± 0.8
463.44 K, 6468.5 kPa	532.4 ± 2.3
463.45 K, 5285.9 kPa	400.4 ± 1.9
463.45 K, 10115 kPa	751.1 ± 3
463.46 K, 3590.1 kPa	219.5 ± 1.1
463.46 K, 4621.8 kPa	323.1 ± 1.6
463.46 K, 5775.9 kPa	458 ± 2.1
463.47 K, 8574.6 kPa	684.4 ± 2.8
473.43 K, 7093.2 kPa	531.9 ± 2.3
473.43 K, 7877 kPa	590.5 ± 2.4
473.44 K, 1751.3 kPa	83.1 ± 0.6
473.45 K, 3766 kPa	219.3 ± 1.1
473.45 K, 4919.9 kPa	322.8 ± 1.5
473.45 K, 5690.2 kPa	400 ± 1.8
473.45 K, 6269.7 kPa	457.6 ± 2
473.46 K, 2503.4 kPa	128.1 ± 0.8
473.46 K, 9568.9 kPa	683.7 ± 2.8
483.43 K, 7718.7 kPa	531.4 ± 2.2
483.44 K, 6093 kPa	399.6 ± 1.8
483.44 K, 6761.7 kPa	457.1 ± 2
483.44 K, 8628.9 kPa	590 ± 2.4
483.45 K, 1803.6 kPa	83 ± 0.6
483.45 K, 5216.5 kPa	322.5 ± 1.5
483.46 K, 2590.8 kPa	128 ± 0.7
483.46 K, 3941.1 kPa	219.1 ± 1.1
493.42 K, 8344.4 kPa	530.8 ± 2.2
493.43 K, 2677.3 kPa	127.8 ± 0.7
493.44 K, 9378.9 kPa	589.4 ± 2.4
493.45 K, 1854.7 kPa	83 ± 0.6
493.46 K, 5509.7 kPa	322.2 ± 1.4
493.46 K, 6493.6 kPa	399.3 ± 1.7
493.46 K, 7253 kPa	456.7 ± 1.9
493.47 K, 4117.6 kPa	218.9 ± 1
503.44 K, 2763.1 kPa	127.7 ± 0.7
503.44 K, 8968.2 kPa	530.3 ± 2.2
503.45 K, 1906.1 kPa	82.9 ± 0.6
503.45 K, 7742.3 kPa	456.3 ± 1.9
503.45 K, 10130 kPa	588.8 ± 2.4
503.46 K, 6891.7 kPa	398.9 ± 1.7
503.47 K, 4290.5 kPa	218.7 ± 1
503.47 K, 5802.6 kPa	321.9 ± 1.4
513.42 K, 2848.4 kPa	127.6 ± 0.7
513.42 K, 8228 kPa	455.8 ± 1.9
513.43 K, 9591.2 kPa	529.8 ± 2.2
513.44 K, 1956.7 kPa	82.8 ± 0.6
513.46 K, 4460.3 kPa	218.4 ± 1
513.46 K, 7287.8 kPa	398.5 ± 1.7
513.47 K, 6092.7 kPa	321.6 ± 1.4
523.41 K, 2933.2 kPa	127.5 ± 0.7
523.41 K, 8713.2 kPa	455.4 ± 1.9
523.44 K, 6379.8 kPa	321.3 ± 1.4
523.44 K, 10213 kPa	529.3 ± 2.2
523.45 K, 2008.3 kPa	82.7 ± 0.6
523.45 K, 7680.8 kPa	398.1 ± 1.7
523.46 K, 4629.7 kPa	218.2 ± 1
